Assay results: patent publication US20230123334A1, “AMINO LIPID COMPOUND, PREPARATION METHOD THEREFOR, AND APPLICATION THEREOF” (SHENZHEN SHENXIN BIOTECHNOLOGY CO., LTD., priority 2020, published 2023)

Experiments:
Format in all cases: cell-based
MCF7 cells [1] = test: Transfection of MCF7 cell line, DNA vectors; design: concentration or dose not given beside the values; conditions: plasmid DNA, GFP cells / total cells
Protocol: (§1) Cell line: MCF7 cells (ATCC HTB-22)
Medium DMEM supplemented with […] fetal bovine serum
(§2) Screening: cell transfection on 96-well plates
Detection (readout): percentage of the number of GFP fluorescent cells relative to the total number of cells (the total number of cells was determined using nucleus dye Hoechst). Lipofectamine2000 was used as the positive control, according to the manufacturer's instructions.
Method: the experimental method was basically the same with Example 4.

Hela cells [2] = test: Transfection of Hela cell line, DNA vectors; conditions: 75 ng plasmid DNA, GFP cells / total cells
Method in brief: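 Amino lipid/DOPE liposomes in sodium acetate pH 5.6 were complexed with 75 ng psin-EGFP-IRES-Puro plasmid for 30 min at room temperature, then mixed with 3-5×10^4 Hela cells in DMEM/10% FBS at 37° C. Hoechst stain after 20-24 h, imaging after a further 20-24 h. Efficiency = GFP-positive cells / total nuclei.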

Hela cells [3] = test: Transfection of Hela cell line, mRNA vectors; conditions: 50 ng EGFP mRNA per well
Method in brief: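 Transfection efficiency was scored as GFP-fluorescent cells over Hoechst-stained total nuclei, with Lipofectamine2000 as reference reagent. Each well of HeLa cells, grown in DMEM plus 10% FBS, received 50 ng EGFP mRNA.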

MCF7 cells [4] = test: Transfection of MCF7 cell line, mRNA vectors; conditions: 50 ng EGFP mRNA per well
Protocol: as §1
Medium: DMEM supplemented with 10 fetal bovine serum (Invitrogen)
as §2
Detection (readout): percentage of the number of GFP fluorescent cells relative to the total number of cells (the total number of cells was determined using nucleus dye Hoechst). Lipofectamine2000 (Invitrogen) was used as the positive control.
Method: the experimental method was basically the same with Example 4, and the mass of EGFP mRNA (TriLink) for transfection was 50 ng per well.

SMILES	Absolute DNA transfection efficiency in MCF7 cells (MCF7 cells [1]) [%]	Absolute DNA transfection efficiency in Hela cells (Hela cells [2]) [%]	Absolute mRNA transfection efficiency in Hela cells (Hela cells [3]) [%]	Absolute mRNA transfection efficiency in MCF7 cells (MCF7 cells [4]) [%]
CCCCCCCCCNc1nc(NCCN2CCCC2)nc(SCCCCCCCCC)n1 [Compound S9N9D3]	8.6	27.4	27.4	12.1
CCCCCCCCCCCCSc1nc(NCCCN2CCN(C)CC2)nc(SCCCCCCC)n1 [Compound S7S12D9]	14.6	2.9	2.9	21.2
CCCCCCCCCCCCNc1nc(NCC2CCN(C)CC2)nc(SCCCCCCCC)n1 [Compound S8N12D10]	40.6	22.6	22.6	23.1
CCCCCCCCCCCCSc1nc(NCCN2CCN(C)CC2)nc(SCCCCCCC)n1 [Compound S7S12D5]	27.1	4.9	4.9	33.6
CCCCCCCCCCCCSc1nc(NCCCN(C)C)nc(SCCCCCCC)n1 [Compound S7S12D6]	52.1	5.8	5.8	19.1
CCCCCCCCCNc1nc(NCCCN2CCN(C)CC2)nc(SCCCCCCCCC)n1 [Compound S9N9D9]	42.3	25.6	25.6	21.0
CCCCCCCCCCCCNc1nc(NCCN2CCCC2)nc(SCCCCCCCC)n1 [Compound S8N12D3]	13.7	8.8	8.9	20.7
CCCCCCCCCCCCNc1nc(NCCCN(C)C)nc(SCCCCCCCC)n1 [Compound S8N12D6]	25.5	39.3	39.3	22.5
CCCCCCCCCNc1nc(NCCCN2CCOCC2)nc(SCCCCCCCCC)n1 [Compound S9N9D8]	7.8	7.4	7.4	2.6
CCCCCCCCCNc1nc(NCCCN(C)C)nc(SCCCCCCCCC)n1 [Compound S9N9D6]	11.0	30.3	30.3	30.7
CCCCCCCCCCCSc1nc(NCCCN2CCN(C)CC2)nc(SCCCCCCC)n1 [Compound S7S11D9]	44.5	12.9	12.9	3.6
CCCCCCCCCCCCCNc1nc(NCCN2CCN(C)CC2)nc(SCCCCCCCC)n1 [Compound S8N13D5]	24.5	14.7	14.7	9.2
CCCCCCCCCCCCCNc1nc(NCCCN(C)C)nc(SCCCCCCCC)n1 [Compound S8N13D6]	32.2	27.6	27.6	33.4
CCCCCCCCCCCSc1nc(NCCCN2CCOCC2)nc(SCCCCCCC)n1 [Compound S7S11D8]	12.9	5.6	5.6	1.5
CCCCCCCCCCCCSc1nc(NCCN2CCCC2)nc(SCCCCCCC)n1 [Compound S7S12D3]	3.0	4.9	4.9	9.4
CCCCCCCCCCCCSc1nc(NCC2CCN(C)CC2)nc(SCCCCCCC)n1 [Compound S7S12D10]	44.7	10.6	10.6	47.5

SMILES	Absolute DNA transfection efficiency in MCF7 cells (MCF7 cells [1]) [%]	Absolute DNA transfection efficiency in Hela cells (Hela cells [2]) [%]	Absolute mRNA transfection efficiency in Hela cells (Hela cells [3]) [%]	Absolute mRNA transfection efficiency in MCF7 cells (MCF7 cells [4]) [%]
CCCCCCCCCCCSc1nc(NCCN2CCCC2)nc(SCCCCCCC)n1 [Compound S7S11D3]	6.4	4.8	4.8	6.7
CCCCCCCCCCCCNc1nc(NCCN2CCN(C)CC2)nc(SCCCCCCCC)n1 [Compound S8N12D5]	29.2	20.8	20.8	19.7
CCCCCCCCCCCCCNc1nc(NCCCN2CCOCC2)nc(SCCCCCCCC)n1 [Compound S8N13D8]	0.9	6.6	6.6	0.4
CCCCCCCCCNc1nc(NCC2CCN(C)CC2)nc(SCCCCCCCCC)n1 [Compound S9N9D10]	38.9	17.6	17.6	29.6
CCCCCCCCCCCSc1nc(NCCN2CCN(C)CC2)nc(SCCCCCCC)n1 [Compound S7S11D5]	23.3	16.8	16.8	16.5
CCCCCCCCCCCCNc1nc(NCCCN2CCN(C)CC2)nc(SCCCCCCCC)n1 [Compound S8N12D9]	32.0	24.4	24.1	16.4
CCCCCCCCCNc1nc(NCCN2CCN(C)CC2)nc(SCCCCCCCCC)n1 [Compound S9N9D5]	21.2	23.9	23.9	8.3
CCCCCCCCCCCSc1nc(NCCCCCCC)nc(NCCCN2CCOCC2)n1 [Compound S11N7D8]	1.7	6.7	6.7	3.2
CCCCCCCCCCCSc1nc(NCCCCCCC)nc(NCC2CCN(C)CC2)n1 [Compound S11N7D10]	10.1	14.7	14.7	9.0
CCCCCCCCCCCCCNc1nc(NCC2CCN(C)CC2)nc(SCCCCCCCC)n1 [Compound S8N13D10]	41.7	9.5	9.5	23.0
CCCCCCCCCCCCCNc1nc(NCCN2CCCC2)nc(SCCCCCCCC)n1 [Compound S8N13D3]	19.9	15.7	15.7	18.1
CCCCCCCCCCCSc1nc(NCCCCCCC)nc(NCCCN(C)C)n1 [Compound S11N7D6]	16.2	17.0	17.0	4.2
CCCCCCCCCCCSc1nc(NCCCCCCC)nc(NCCN2CCN(C)CC2)n1 [Compound S11N7D5]	4.7	11.4	11.4	3.4
CCCCCCCCCCCSc1nc(NCC2CCN(C)CC2)nc(SCCCCCCC)n1 [Compound S7S11D10]	33.8	19.7	19.7	22.2
CCCCCCCCCCCSc1nc(NCCCCCCC)nc(NCCCN2CCN(C)CC2)n1 [Compound S11N7D9]	5.8	8.3	8.3	5.1
